Test results published in patent US7541032B2, “Antigen uptake receptor for Candida albicans on dendritic cells” (priority 2002, dated 2009).
Blank lines part the entries; values can stand above or below the molecule they belong to.

What was measured:
DC-SIGN [1] = target: T1, DC-SIGN (Homo sapiens, UniProt Q9NNX6); experiment: Binding of conidiae and hyphae of other Candida strains/species and Aspergillus fumigatus to K-SIGN cells; type: cell-based
T1 construct: expressed in transfected cells
T1 sequence (Q9NNX6 1-404): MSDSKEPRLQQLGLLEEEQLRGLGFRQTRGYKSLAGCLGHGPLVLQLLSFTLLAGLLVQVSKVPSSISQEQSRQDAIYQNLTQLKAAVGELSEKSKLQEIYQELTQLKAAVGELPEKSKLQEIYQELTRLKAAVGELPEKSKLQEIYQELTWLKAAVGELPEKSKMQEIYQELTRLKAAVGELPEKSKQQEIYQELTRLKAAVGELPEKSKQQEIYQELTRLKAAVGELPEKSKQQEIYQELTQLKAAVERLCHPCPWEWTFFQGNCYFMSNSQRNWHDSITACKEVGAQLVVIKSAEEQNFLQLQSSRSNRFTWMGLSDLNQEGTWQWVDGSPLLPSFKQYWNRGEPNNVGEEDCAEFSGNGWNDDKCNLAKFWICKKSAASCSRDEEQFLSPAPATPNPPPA
Protocol: (§1) DC or K562 transfected cells were stained with anti-CD45-APC prior to exposure to FITC labeled live or heat inactivated Candida. DC or K562 cells expressing DC-SIGN or ALCAM (control) were or were not preincubated for 10 minutes at room temperature with mannan (300 μg/mL), mannose (100 mM), facose (100 mM), EGTA (5 mM), or a mixture of AZN-D1 and AZN-D3 (20 μg/mL), in 20 mM Tris pH 8.0, containing 150 mM NaCl, 1 mM CaCl2, 2 mM MgCl2, and 1% BSA (TSA buffer) or, when EGTA was used, in PBS. Subsequently, FITC labeled Candida were resuspended to the appropriate concentrations either in TSA or PBS and added in various cell/C. albicans ratios. After incubation, cell-Candida conjugates were analyzed by flow cytometry, and the relative difference in mean fluorescence intensity of the double labeled events compared with that of control cells was calculated. Cells were labeled with anti-CD45APC to discriminate cells binding FITC-labeled yeast particles from yeast aggregates.
Further studies were performed as above but using other strains or species of yeast and also comparing binding of the conidiae versus binding of the hyphal form of the organism. […] These are clinical strains isolated from patients. It is seen that the conidiae or single-celled form of the yeast bind to DC-SIGN better than do the hyphae. […]

DC-SIGN [2] = target: T1, DC-SIGN; experiment: Binding of FITC-labeled C. albicans to K562 transfectants expressing DC-SIGN (K-SIGN), flow cytometry; type: cell-based; settings: for Inhibition of binding of C. albicans to K562 cells transfected with wild-type DC-SIGN (FIG. 1F): K562 wild-type DC-SIGN transfectants
Protocol: (§2) Immature dendritic cells (imDC) were generated from human peripheral blood monocytes as described previously (Vissers et al., 2001). Briefly, monocytes were isolated by adherence to plastic and cultured in the presence of IL-4 (500 U/mL) and GM-CSF (800 U/mL) for 6-7 days. K562 transfectants either expressing DC-SIGN or ALCAM were generated by transfection of K562 cells with 10 μg of plasmid by electroporation as described previously (Geijtenbeek et al., 2000b; Nelissen et al., 2000). Positive cells were sorted several times to obtain stable transfectants with similar expression levels of DC-SIGN.
(§3) Labeling of Candida cells was performed as follows: viable or heat killed (60 minutes at 56° C. or 30 minutes at 100° C.) yeast cells were resuspended to 2×10^8/mL in 0.1 mg/mL FITC in 0.05 M carbonate-bicarbonate buffer (pH 9.5). After incubation for 15 minutes at room temperature in the dark, FITC-labeled Candida cells were washed twice in PBS containing 1% BSA (PBA buffer) and analyzed by flow cytometry.
as §1
The erythroleukemic cell line K562 transfectants stably expressing DC-SIGN (K-SIGN) (Geijtenbeek et al., 2000a) were used to investigate the potential of C. albicans to bind DC-SIGN in the absence of any other known C. albicans, receptors. Binding to ICAM-3 fluorescent beads was used as a positive control for DC-SIGN function. […] The monoclonal antibodies AZN-D1 and AZN-L50 were used to detect DC-SIGN and ALCAM, respectively. The K562 transfectants stably express DC-SIGN and ALCAM, (FIGS. 1A-1 through 1A-3) with expression levels similar to that observed previously (Geijtenbeek et al., 2000a; Nelissen et al., 2000).
Transfectant cells were labeled with CD45APC to discriminate cells binding FITC labeled yeast from yeast aggregates. […]

[3] = tested on: immature dendritic cells (imDC); experiment: Binding of C. albicans to immature monocyte-derived dendritic cells in the presence of blocking agents, flow cytometry; type: cell-based, human; settings: for Inhibition of binding of Candida to imDC at ratios 1:2, 1:5 and 1:10 (FIG. 3D): imDC:C. albicans 1:2, 1:5, 1:10; for Inhibition of imDC/Candida binding (FIG. 5): panel of possible inhibitors, buffer TSA as control
Protocol: as §2, §3, §1
In an attempt to establish the contribution of both the mannose receptor and DC-SIGN, immature DC were incubated with specific inhibitors before interacting with C. albicans. Immature monocyte derived dendritic cells (50×10^3), which were CD45APC labeled, were incubated with heat-inactivated Candida (500×10^3) in the absence or presence of AZN-D1 and AZN-D3, anti-DC-SIGN mAb (20 μg/mL each), mannose (100 mM), and EGTA (5 mM).

immature DC = experiment: Phagocytosis of FITC-labeled Candida by immature DC, confocal microscopy; type: cell-based, human; settings: 60 minutes at 37° C.
Protocol: Immature DC (5×10^5) were incubated with unopsonized live FITC-labeled Candida cells (2.5×10^6) in a total volume of 500 μL at 37° C. in a water bath with orbital shaking at 150 rpm for various periods of time. At the end of the incubation period, the DC binding Candida are separated from unbound Candida by a Ficoll gradient.
The samples were then adhered on poly-L-lysine coated glass coverslips, fixed in 1% paraformaldehyde in PBS for 15 minutes at room temperature, and permeabilized in cold methanol for 5 minutes on ice. After a blocking step in PBS/3% BSA for 60 minutes at room temperature, cells were labeled with mAb (10 μg/mL in PBS/3% BSA) for 60 minutes at room temperature and subsequently incubated with Cy5-conjugated Goat-anti-Mouse F(ab′)2 fragments for 30 minutes at room temperature. Finally, the anti-bleach reagent Mowiol was added, and samples were analyzed using a MRC1024 confocal microscope (Bio-Rad).
It was recently shown that DC-SIGN is an antigen uptake receptor, facilitating phagocytosis within minutes (Engering et al., 2002). In order to determine whether DC-SIGN contributes also to the internalization of C. albicans by immature DC, experiments were performed allowing DC to interact with FITC-labeled Candida for 60 minutes at 37° C. to allow phagocytosis. […]

[4] = target: T2, Activated Leukocyte Cell Adhesion Molecule ALCAM (UniProt Q13740 28-583, limits assumed); experiment: fluorescent beads adhesion assay, flow cytometry, K562 transfectants
T2 construct: whole, on cells; also called K-ALCAM (K562 cells transfected with ALCAM)
T2 sequence (looked up): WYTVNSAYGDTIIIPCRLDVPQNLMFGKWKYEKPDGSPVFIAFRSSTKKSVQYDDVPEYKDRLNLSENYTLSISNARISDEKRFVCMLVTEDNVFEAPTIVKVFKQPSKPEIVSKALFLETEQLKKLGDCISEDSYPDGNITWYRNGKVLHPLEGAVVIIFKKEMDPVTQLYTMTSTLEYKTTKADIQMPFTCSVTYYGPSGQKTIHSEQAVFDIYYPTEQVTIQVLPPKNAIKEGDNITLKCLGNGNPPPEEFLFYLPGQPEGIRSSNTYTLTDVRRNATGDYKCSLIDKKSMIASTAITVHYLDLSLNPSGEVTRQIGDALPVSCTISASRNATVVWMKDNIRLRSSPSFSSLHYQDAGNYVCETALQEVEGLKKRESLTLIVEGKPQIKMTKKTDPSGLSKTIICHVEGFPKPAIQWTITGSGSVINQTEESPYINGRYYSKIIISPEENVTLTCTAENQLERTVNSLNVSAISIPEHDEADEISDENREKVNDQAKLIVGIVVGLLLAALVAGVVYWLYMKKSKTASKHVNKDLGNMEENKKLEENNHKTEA
Protocol: In inhibition studies, the bead adhesion assay was performed in the presence of 0.3 mg/mL mannan, 5 mM EGTA, or 20 μg/mL antibodies against DC-SIGN or ALCAM.
The erythroleukemic cell line K562 transfectants stably expressing DC-SIGN (K-SIGN) (Geijtenbeek et al., 2000a) were used to investigate the potential of *C. albicans* to bind DC-SIGN in the absence of any other known *C. albicans*, receptors.

Molecule: O=C(O)CN(CCN(CC(=O)O)CC(=O)O)CC(=O)O [EDTA]
Inhibition of binding of various Candida species and Aspergillus fumigatus to K-SIGN cells (FIGS. 8A-F) (DC-SIGN [1]; conidiae and hyphae, all cases except possibly C. tropicalis and C. parapsilosis (very low binding)): inhibited

Molecule: O=C(O)CN(CCOCCOCCN(CC(=O)O)CC(=O)O)CC(=O)O [EGTA]
Inhibition of binding of C. albicans by K-SIGN (FIG. 1C) (DC-SIGN [2]; AZN-D1 20 μg/mL, EGTA 5 mM): abrogates binding
Inhibition of binding of C. albicans to K562 cells transfected with wild-type DC-SIGN (FIG. 1F) (DC-SIGN [2]): prevented the binding
Inhibition of binding of live and heat-killed (56° C. or 100° C.) yeast forms of C. albicans by DC-SIGN (FIG. 2) (DC-SIGN [2]; K-SIGN, live and heat-inactivated yeast): inhibited
Inhibition of binding of conidiae and hyphae to K-SIGN cells (FIG. 6) (DC-SIGN [1]; C. albicans strains V13-12, V15-31, V18-17, C. dubliniensis strains V18-13, 4247, 3588): inhibited
Blocking of binding of C. albicans to immature DC, in words (FIG. 3B) ([3]; EGTA 5 mM, heat-inactivated Candida): most effective blocking agent
Inhibition of binding of Candida to imDC at ratios 1:2, 1:5 and 1:10 (FIG. 3D) [3]: largely eliminated binding
Inhibition of imDC/Candida binding (FIG. 5) [3]: inhibited binding to a large degree
Blocking of phagocytosis of Candida by immature DC (immature DC): almost completely blocked phagocytosis

Molecule: C[C@H](O)[C@@H](O)[C@@H](O)[C@H](O)C=O [fucose, L-fucose]
Inhibition of binding of C. albicans to K562 cells transfected with wild-type DC-SIGN (FIG. 1F) (DC-SIGN [2]): some inhibition
Inhibition of binding of Candida to imDC at ratios 1:2, 1:5 and 1:10 (FIG. 3D) [3]: greater inhibitory effects
Inhibition of imDC/Candida binding (FIG. 5) [3]: inhibited binding to a large degree

Molecule: Mannan
Inhibition of binding of Candida to imDC at ratios 1:2, 1:5 and 1:10 (FIG. 3D) [3]: did not block the binding
Inhibition of imDC/Candida binding (FIG. 5) [3]: only minor effects

Molecule: laminarin
Blocking of C. albicans binding on immature monocyte derived DC (β2-integrin / Dectin-1 interference) [3]: did not show any block
Inhibition of imDC/Candida binding (FIG. 5) [3]: only minor effects

Molecule: β-1,2-oligomannoside
Inhibition of imDC/Candida binding (FIG. 5) [3]: greatly inhibited binding

binding result [4]: no binding
B1: ICAM-3-Fc (Fc fusion, UniProt P32942 30-485, looked up)
chain: QEFLLRVEPQNPVLSAGGSLFVNCSTDCPSSEKIALETSLSKELVASGMGWAAFNLSNVTGNSRILCSVYCNGSQITGSSNITVYRLPERVELAPLPPWQPVGQNFTLRCQVEDGSPRTSLTVVLLRWEEELSRQPAVEEPAEVTATVLASRDDHGAPFSCRTELDMQPQGLGLFVNTSAPRQLRTFVLPVTPPRLVAPRFLEVETSWPVDCTLDGLFPASEAQVYLALGDQMLNATVMNHGDTLTATATATARADQEGAREIVCNVTLGGERREARENLTVFSFLGPIVNLSEPTAHEGSTVTVSCMAGARVQVTLDGVPAAAPGQPAQLQLNATESDDGRSFFCSATLEVDGEFLHRNSSVQLRVLYGPKIDRATCPQHLKWKDKTRHVLQCQARGNPYPELRCLKEGSSREVPVGIPFFVNVTHNGTYQCQASSSRGKYTLVVVMDIEAGSSH
notes: Coated on carboxylate-modified TransFluorSpheres; also called ICAM-3-Fc coated beads; ICAM-3 fluorescent beads; not shown: Fc part
